Test results taken from US20100010219A1, “METHOD FOR PRODUCING PYRROLIDINE COMPOUND” (JAPAN TOBACCO INC., priority 2006, published 2010).
Structures can show the parent of a compound that is named as a salt.

Molecular target: T1, human HSD-1 (recombinant HSD-1) (Homo sapiens, UniProt P28845)
T1 construct: made in house
Experiment: HSD-1 activity inhibitory action in vitro (SPA, conversion of cortisone to cortisol)
Format: biochemical
Settings: recombinant human HSD-1 expressed using baculovirus system; 10 nM 3H cortisone, 500 μM NADPH; room temperature 90 to 120 min; read-out: hHSD1 (IC50 (nM))

T1 sequence (P28845 whole entry): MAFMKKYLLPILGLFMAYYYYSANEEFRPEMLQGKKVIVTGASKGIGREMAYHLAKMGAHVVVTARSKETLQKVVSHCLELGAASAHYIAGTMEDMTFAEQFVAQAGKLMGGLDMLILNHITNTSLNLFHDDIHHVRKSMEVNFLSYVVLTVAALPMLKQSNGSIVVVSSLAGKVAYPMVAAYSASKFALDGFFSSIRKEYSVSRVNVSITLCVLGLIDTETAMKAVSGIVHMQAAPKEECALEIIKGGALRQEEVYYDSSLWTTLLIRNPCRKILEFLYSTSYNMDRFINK

IC50, < 30 nM:
CC1(c2c(C(=O)N3CCC(c4ccccc4CO)C3)cnn2C2CCN(c3ncccn3)CC2)CC1 (stereo not shown) [Example 180, 3-(2-hydroxymethylphenyl)-1-{5-(1-methylcyclopropyl)-1-[1-(pyrimidin-2-yl)piperidin-4-yl]-1H-pyrazole-4-carbonyl}pyrrolidine hydrochloride]
O=C(NCC(=O)N1CCC(n2ncc(C(=O)N3CC[C@@H](c4ccccc4C(F)(F)F)C3)c2C2CC2)CC1)C1CC1 [Example 88, 1-{1-[1-(2-cyclopropanecarbonylaminoacetyl)piperidin-4-yl]-5-cyclopropyl-1H-pyrazole-4-carbonyl}-[(S)-3-(2-trifluoromethylphenyl)]pyrrolidine]
COCC1(c2ccccc2)CCN(C(=O)c2cnn(C3CCN(c4ccc(Cl)cn4)CC3)c2C2(C)CC2)C1 (stereo not shown) [Example 174, 1-{1-[1-(5-chloropyridin-2-yl)piperidin-4-yl]-5-(1-methylcyclopropyl)-1H-pyrazole-4-carbonyl}-3-methoxymethyl-3-phenylpyrrolidine]
CC(C)ONC(=O)N1CCC(n2ncc(C(=O)N3CCC(c4ccccc4C(F)(F)F)C3)c2C2(C)CC2)CC1 (stereo not shown) [Example 146, 1-{1-[1-(isopropoxycarbamoyl)piperidin-4-yl]-5-(1-methylcyclopropyl)-1H-pyrazole-4-carbonyl}-3-(2-trifluoromethylphenyl)pyrrolidine]
CCONC(=O)N1CCC(n2ncc(C(=O)N3CCC(c4ccccc4C(F)(F)F)C3)c2C2(C)CC2)CC1 (stereo not shown) [Example 172, 1-[1-(1-ethoxycarbamoylpiperidin-4-yl)-5-(1-methylcyclopropyl)-1H-pyrazole-4-carbonyl]-3-(2-trifluoromethylphenyl)pyrrolidine]
CN1CCC(NC(=O)N2CCC(n3ncc(C(=O)N4CC[C@@H](c5ccccc5C(F)(F)F)C4)c3C3CC3)CC2)CC1 [Example 42, 1-{5-cyclopropyl-1-[1-(1-methylpiperidin-4-yl-carbamoyl)piperidin-4-yl]-1H-pyrazole-4-carbonyl}-[(S)-3-(2-trifluoromethylphenyl)]pyrrolidine hydrochloride]
CC(C)[C@@H](C(=O)O)N(C)C(=O)[C@H]1CC[C@H](n2ncc(C(=O)N3CCC(c4ccccc4C(F)(F)F)C3)c2C2CC2)CC1 (stereo partly drawn) [Example 189, (S)-2-[(trans-4-{5-cyclopropyl-4-[3-(2-trifluoromethylphenyl)pyrrolidine-1-carbonyl]pyrazol-1-yl}cyclohexanecarbonyl)methylamino]-3-methylbutyric acid]
O=C(c1cnn(C2CCN(CC3(C(=O)NCCO)CC3)CC2)c1C1CC1)N1CC[C@@H](c2ccccc2C(F)(F)F)C1 [Example 107, 1-(5-cyclopropyl-1-{1-[1-(2-hydroxyethylcarbamoyl)cyclopropylmethyl]piperidin-4-yl}-1H-pyrazole-4-carbonyl)-[(S)-3-(2-trifluoromethylphenyl)]pyrrolidine hydrochloride]
CC1(NC(=O)N2CCC(n3ncc(C(=O)N4CC[C@@H](c5ccccc5C(F)(F)F)C4)c3C3CC3)CC2)CC1 [Example 126, 1-{5-cyclopropyl-1-[1-(1-methylcyclopropylcarbamoyl)piperidin-4-yl]-1H-pyrazole-4-carbonyl}-[(S)-3-(2-trifluoromethylphenyl)]pyrrolidine]
O=C(c1cnn(C2CCN(C(=O)C3CC3)CC2)c1C1CC1)N1CC[C@@H](c2ccccc2C(F)(F)F)C1 [Example 64, 1-[1-(1-cyclopropanecarbonylpiperidin-4-yl)-5-cyclopropyl-1H-pyrazole-4-carbonyl]-[(S)-3-(2-trifluoromethylphenyl)]pyrrolidine]
CC1(c2c(C(=O)N3CCC(c4cccnc4)C3)cnn2C2CCN(C(=O)Nc3ccc(C(F)(F)F)cc3)CC2)CC1 (stereo not shown) [Example 133, 1-{5-(1-methylcyclopropyl)-1-[1-(4-trifluoromethylphenylcarbamoyl)piperidin-4-yl]-1H-pyrazole-4-carbonyl}-3-(pyridin-3-yl)pyrrolidine]
O=C(Nc1ccc(C(F)(F)F)cc1)N1CCC(n2ncc(C(=O)N3CCC(c4ccccc4C(F)(F)F)C3)c2C2CC2)CC1 (stereo not shown) [Example 141, 1-{5-cyclopropyl-1-[1-(4-trifluoromethylphenylcarbamoyl)piperidin-4-yl]-1H-pyrazole-4-carbonyl}-3-(2-trifluoromethylphenyl)pyrrolidine]
O=C(c1cnn(C2CCN(C(=O)C3(c4ccc(F)cc4)CC3)CC2)c1C1CC1)N1CC[C@@H](c2ccccc2C(F)(F)F)C1 [Example 66, 1-(5-cyclopropyl-1-{1-[1-(4-fluorophenyl)cyclopropanecarbonyl]piperidin-4-yl}-1H-pyrazole-4-carbonyl)-[(S)-3-(2-trifluoromethylphenyl)]pyrrolidine]
O=C(c1cnn(C2CCN(c3n[nH]c(C4CC4)n3)CC2)c1C1CC1)N1CC[C@@H](c2ccccc2C(F)(F)F)C1 [Example 118, 1-{5-cyclopropyl-1-[1-(5-cyclopropyl-4H-[1,2,4]triazol-3-yl)piperidin-4-yl]-1H-pyrazole-4-carbonyl}-[(S)-3-(2-trifluoromethylphenyl)]pyrrolidine hydrochloride]
CC(=O)NCCNC(=O)N1CCC(n2ncc(C(=O)N3CC[C@@H](c4ccccc4C(F)(F)F)C3)c2C2CC2)CC1 [Example 10, 1-{1-[1-(2-acetylaminoethylcarbamoyl)piperidin-4-yl]-5-cyclopropyl-1H-pyrazole-4-carbonyl}-[(S)-3-(2-trifluoromethylphenyl)]pyrrolidine]
COc1ccnc(N2CCC(n3ncc(C(=O)N4CCC(CO)(c5ccccc5)C4)c3C3(C)CC3)CC2)n1 (stereo not shown) [Example 185, 3-hydroxymethyl-1-{1-[1-(4-methoxypyrimidin-2-yl)piperidin-4-yl]-5-(1-methylcyclopropyl)-1H-pyrazole-4-carbonyl}-3-phenylpyrrolidine hydrochloride]
O=C(O)c1ccc(N2CCC(n3ncc(C(=O)N4CCC(c5ccccc5C(F)(F)F)C4)c3C3CC3)CC2)s1 (stereo not shown) [Example 115, 5-(4-{5-cyclopropyl-4-[3-(2-trifluoromethylphenyl)pyrrolidine-1-carbonyl]pyrazol-1-yl}piperidin-1-yl)thiophene-2-carboxylic acid]
CC(C)(CO)NC(=O)N1CCC(n2ncc(C(=O)N3CC[C@@H](c4ccccc4C(F)(F)F)C3)c2C2CC2)CC1 [Example 9, 1-{5-cyclopropyl-1-[1-(2-hydroxy-1,1-dimethylethylcarbamoyl)piperidin-4-yl]-1H-pyrazole-4-carbonyl}-[(S)-3-(2-trifluoromethylphenyl)]pyrrolidine]
CC(=O)N1CCC(NC(=O)N2CCC(n3ncc(C(=O)N4CC[C@@H](c5ccccc5C(F)(F)F)C4)c3C3CC3)CC2)CC1 [Example 43, 1-{1-[1-(1-acetylpiperidin-4-yl-carbamoyl)piperidin-4-yl]-5-cyclopropyl-1H-pyrazole-4-carbonyl}-[(S)-3-(2-trifluoromethylphenyl)]pyrrolidine]
O=C(c1cnn(C2CN(c3ccc(Cl)cn3)C2)c1C1CC1)N1CCC(c2ccccc2C(F)(F)F)C1 (stereo not shown) [Example 173]
O=C(c1cnn(C2CCN(C(=O)N3CCC(CO)CC3)CC2)c1C1CC1)N1CC[C@@H](c2ccccc2C(F)(F)F)C1 [Example 24, 1-{5-cyclopropyl-1-[1-(4-hydroxymethylpiperidine-1-carbonyl)piperidin-4-yl]-1H-pyrazole-4-carbonyl}-[(S)-3-(2-trifluoromethylphenyl)]pyrrolidine]
CC1(c2c(C(=O)N3CCC(c4ccccc4)(C(F)(F)F)C3)cnn2C2CCN(C(=O)Nc3ccccc3F)CC2)CC1 (stereo not shown) [Example 135, 1-{1-[1-(2-fluorophenylcarbamoyl)piperidin-4-yl]-5-(1-methylcyclopropyl)-1H-pyrazole-4-carbonyl}-3-phenyl-3-trifluoromethylpyrrolidine]
O=C(O)c1csc(N2CCC(n3ncc(C(=O)N4CCC(c5ccccc5C(F)(F)F)C4)c3C3CC3)CC2)n1 (stereo not shown) [Example 116, 2-(4-{5-cyclopropyl-4-[3-(2-trifluoromethylphenyl)pyrrolidine-1-carbonyl]pyrazol-1-yl}piperidin-1-yl)thiazole-4-carboxylic acid]
O=C(NCCO)N1CCC(n2ncc(C(=O)N3CC[C@@H](c4ccccc4C(F)(F)F)C3)c2C2CC2)CC1 [Example 8, 1-{5-cyclopropyl-1-[1-(2-hydroxyethylcarbamoyl)piperidin-4-yl]-1H-pyrazole-4-carbonyl}-[(S)-3-(2-trifluoromethylphenyl)]pyrrolidine]
CC1(C)C(c2c(C(=O)N3CCC(c4cccnc4)C3)cnn2C2CCN(C(=O)Nc3ccccc3F)CC2)C1(C)C (stereo not shown) [Example 138, 1-{1-[1-(2-fluorophenylcarbamoyl)piperidin-4-yl]-5-(2,2,3,3-tetramethylcyclopropyl)-1H-pyrazole-4-carbonyl}-3-(pyridin-3-yl)pyrrolidine]
O=C(NC1(CO)CCCC1)N1CCC(n2ncc(C(=O)N3CC[C@@H](c4ccccc4C(F)(F)F)C3)c2C2CC2)CC1 [Example 54, 1-{5-cyclopropyl-1-[1-(1-hydroxymethylcyclopentylcarbamoyl)piperidin-4-yl]-1H-pyrazole-4-carbonyl}-[(S)-3-(2-trifluoromethylphenyl)]pyrrolidine]
Nc1ccc(N2CCC(n3ncc(C(=O)N4CCC(c5ccccc5C(F)(F)F)C4)c3C3CC3)CC2)cc1 (stereo not shown) [Example 168, 1-{1-[1-(4-aminophenyl)piperidin-4-yl]-5-cyclopropyl-1H-pyrazole-4-carbonyl}-3-(2-trifluoromethylphenyl)pyrrolidine]
O=C(CC(F)(F)F)N1CCC(n2ncc(C(=O)N3CC[C@@H](c4ccccc4C(F)(F)F)C3)c2C2CC2)CC1 [Example 73, 1-{5-cyclopropyl-1-[1-(3,3,3-trifluoropropionyl)piperidin-4-yl]-1H-pyrazole-4-carbonyl}-[(S)-3-(2-trifluoromethylphenyl)]pyrrolidine]
